Test results published in patent US10160747B2, “Compounds and methods for kinase modulation, and indications therefor” (Plexxikon Inc., priority 2016, dated 2018).

Legend:
[1] = test system: MOLM-14 F691L (endogenous FLT3 ITD and transfected FLT3 F691L); test: MOLM-14 F691L cell proliferation assay (CellTiter-Glo); type: cell-based; conditions: Homo sapiens, MOLM-14, 72 h; 3 d growth, GMean
Procedure, shortened: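 MOLM-14 cells (FLT3 ITD) carrying D835Y or F691L, 1×10^4 cells/well, eight 1:3 dilutions from 1 μM final, 0.2% DMSO, 3 days at 37 °C, 5% CO2. Viability by CellTiter-Glo luminescence (ATP content); IC50 from concentration-response.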

FLT3-D835Y = molecular target: T1, FLT3-D835Y (Homo sapiens, UniProt P36888, D835Y); test: FLT3-D835Y recombinant enzyme kinase assay (AlphaScreen); type: biochemical; conditions: 8 pt, GMean
T1 construct: purchased Invitrogen PV3967
T1 sequence (P36888 27-993 D835Y): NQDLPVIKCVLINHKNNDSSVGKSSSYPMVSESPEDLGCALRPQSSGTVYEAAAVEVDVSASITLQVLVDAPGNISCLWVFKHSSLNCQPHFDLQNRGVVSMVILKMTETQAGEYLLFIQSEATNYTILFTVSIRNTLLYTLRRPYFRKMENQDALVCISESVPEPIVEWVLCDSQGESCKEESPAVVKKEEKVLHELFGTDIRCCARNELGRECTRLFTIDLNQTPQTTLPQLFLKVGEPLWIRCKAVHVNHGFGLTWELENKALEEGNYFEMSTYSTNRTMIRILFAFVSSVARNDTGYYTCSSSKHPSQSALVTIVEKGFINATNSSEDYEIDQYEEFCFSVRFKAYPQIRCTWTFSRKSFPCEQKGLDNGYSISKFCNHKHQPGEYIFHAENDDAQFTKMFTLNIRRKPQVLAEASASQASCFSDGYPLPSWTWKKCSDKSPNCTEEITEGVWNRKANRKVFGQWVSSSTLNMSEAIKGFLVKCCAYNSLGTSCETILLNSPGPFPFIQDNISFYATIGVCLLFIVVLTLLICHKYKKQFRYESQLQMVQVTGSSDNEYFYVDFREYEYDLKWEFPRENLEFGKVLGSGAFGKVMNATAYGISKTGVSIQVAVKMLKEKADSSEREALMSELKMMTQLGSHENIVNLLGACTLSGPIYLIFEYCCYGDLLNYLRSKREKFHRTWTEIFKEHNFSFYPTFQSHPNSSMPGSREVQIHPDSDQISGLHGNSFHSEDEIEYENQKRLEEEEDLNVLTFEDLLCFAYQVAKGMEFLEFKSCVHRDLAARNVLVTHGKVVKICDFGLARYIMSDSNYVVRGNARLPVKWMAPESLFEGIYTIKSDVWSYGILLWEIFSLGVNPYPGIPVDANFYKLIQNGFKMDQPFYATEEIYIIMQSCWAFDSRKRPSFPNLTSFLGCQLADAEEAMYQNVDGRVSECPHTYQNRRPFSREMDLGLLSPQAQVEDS
Procedure, shortened: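 Recombinant kinase phosphorylates 30 nM biotinylated poly(Glu4-Tyr) peptide; ATP is 10 μM for FLT3-ITD and FLT3-D835Y, 100 μM for c-KIT. Phosphotyrosine detected by AlphaScreen (streptavidin donor, PY20 acceptor beads, 10 μg/mL), 580 nm signal after 680 nm excitation; IC50 from signal decrease.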

| Compound | IC50 [1] [µM] | IC50 (FLT3-D835Y) [µM] |
| --- | --- | --- |
| CCc1cncc(NC(=O)Cc2ccc(-c3cnc(Nc4cnn(C)c4)nc3)cc2F)c1 [Compound P-0111, N-(5-ethyl-3-pyridyl)-2-[2-fluoro-4-[2-[(1-methylpyrazol-4-yl)amino]pyrimidin-5-yl]phenyl]acetamide] | 0.0001 to 10 | 0.0001 to 10 |
| COc1nn(C[C@H](C)O)cc1Nc1ncc(-c2ccc(CC(=O)Nc3cnc(C)c(C(F)(F)F)c3)cc2)cn1 [Compound P-0180, 2-[4-[2-[[1-[(2S)-2-hydroxypropyl]-3-methoxy-pyrazol-4-yl]amino]pyrimidin-5-yl]phenyl]-N-[6-methyl-5-(trifluoromethyl)-3-pyridyl]acetamide] | 0.0001 to 10 | 0.0001 to 10 |
| Cn1cc(Nc2ncc(-c3ccc(CC(=O)Nc4cccc(C(F)(F)F)c4)cc3)cn2)cn1 [Compound P-0141, 2-[4-[2-[(1-methylpyrazol-4-yl)amino]pyrimidin-5-yl]phenyl]-N-[3-(trifluoromethyl)phenyl]acetamide] | 0.0001 to 10 | 0.0001 to 10 |
| O=C(Cc1ccc(-c2cnc3[nH]c(-c4ccc(N5CCOCC5)nc4)cc3c2)c(F)c1)Nc1cncc(C(F)(F)F)c1 [Compound P-0198, 2-[3-fluoro-4-[2-(6-morpholino-3-pyridyl)-1H-pyrrolo[2,3-b]pyridin-5-yl]phenyl]-N-[5-(trifluoromethyl)-3-pyridyl]acetamide] | 0.0001 to 10 | 0.0001 to 10 |
| Cn1cc(Nc2ncc(-c3ccc(CC(=O)Nc4cnc(F)c(C(C)(F)F)c4)cc3)cn2)cn1 [Compound P-0104, N-[5-(1,1-difluoroethyl)-6-fluoro-3-pyridyl]-2-[4-[2-[(1-methylpyrazol-4-yl)amino]pyrimidin-5-yl]phenyl]acetamide] | 0.0001 to 10 | 0.0001 to 10 |
| Cn1cc(Nc2ncc(-c3ccc(CC(=O)Nc4cncc(C(F)(F)F)c4)cc3)cn2)cn1 [Compound P-0136, 2-[4-[2-[(1-methylpyrazol-4-yl)amino]pyrimidin-5-yl]phenyl]-N-[5-(trifluoromethyl)-3-pyridyl]acetamide] | 0.0001 to 10 | 0.0001 to 10 |
| COCCn1cc(Nc2ncc(-c3ccc(CC(=O)Nc4cncc(C(F)(F)F)c4)cc3)cn2)cn1 [Compound P-0178, 2-[4-[2-[[1-(2-methoxyethyl)pyrazol-4-yl]amino]pyrimidin-5-yl]phenyl]-N-[5-(trifluoromethyl)-3-pyridyl]acetamide] | 0.0001 to 10 | 0.0001 to 10 |
| Cn1cc(Nc2ncc(-c3ccc(CC(=O)Nc4cnc(Cl)c(C(F)(F)F)c4)cc3)cn2)cn1 [Compound P-0145, N-[6-chloro-5-(trifluoromethyl)-3-pyridyl]-2-[4-[2-[(1-methylpyrazol-4-yl)amino]pyrimidin-5-yl]phenyl]acetamide] | 0.0001 to 10 | 0.0001 to 10 |
| CC(C)c1cc(NC(=O)Cc2ccc(-c3cnc(Nc4cnn(C)c4)nc3)cc2F)ccn1 [Compound P-0094, 2-[2-fluoro-4-[2-[(1-methylpyrazol-4-yl)amino]pyrimidin-5-yl]phenyl]-N-(2-isopropyl-4-pyridyl)acetamide] | 0.0001 to 10 | 0.0001 to 10 |
| Cc1ncc(NC(=O)Cc2ccc(-c3cnc(Nc4cnn(C)c4)nc3)cc2F)cc1C(F)(F)F [Compound P-0091, 2-[2-fluoro-4-[2-[(1-methylpyrazol-4-yl)amino]pyrimidin-5-yl]phenyl]-N-[6-methyl-5-(trifluoromethyl)-3-pyridyl]acetamide] | 0.0001 to 10 | 0.0001 to 10 |
| Cn1cc(Nc2ncc(-c3ccc(CC(=O)Nc4ccnc(S(C)(=O)=O)c4)cc3)cn2)cn1 [Compound P-0154, 2-[4-[2-[(1-methylpyrazol-4-yl)amino]pyrimidin-5-yl]phenyl]-N-(2-methylsulfonyl-4-pyridyl)acetamide] | 0.0001 to 10 | 0.0001 to 10 |
| Cn1cnc(Nc2ncc(-c3ccc(CC(=O)Nc4cc(C(F)(F)F)ccn4)c(F)c3)cn2)c1 [Compound P-0096, 2-[2-fluoro-4-[2-[(1-methylimidazol-4-yl)amino]pyrimidin-5-yl]phenyl]-N-[4-(trifluoromethyl)-2-pyridyl]acetamide] | 0.0001 to 10 | 0.0001 to 10 |
| Cn1cc(Nc2ncc(-c3ccc(CC(=O)Nc4ccc(C(F)(F)F)c(F)c4)cc3)cn2)cn1 [Compound P-0142, N-[3-fluoro-4-(trifluoromethyl)phenyl]-2-[4-[2-[(1-methylpyrazol-4-yl)amino]pyrimidin-5-yl]phenyl]acetamide] | 0.0001 to 10 | 0.0001 to 10 |
| Cn1cnc(Nc2ncc(-c3ccc(CC(=O)Nc4cncc(C(F)(F)F)c4)cc3)cn2)c1 [Compound P-0167] | 0.0001 to 10 | 0.0001 to 10 |
| Cn1cc(Nc2ncc(-c3ccc(CC(=O)Nc4cc(Cl)c(C5CC5)cn4)c(F)c3)cn2)cn1 [Compound P-0107, N-(4-chloro-5-cyclopropyl-2-pyridyl)-2-[2-fluoro-4-[2-[(1-methylpyrazol-4-yl)amino]pyrimidin-5-yl]phenyl]acetamide] | 0.0001 to 10 | 0.0001 to 10 |
| COCCn1cc(Nc2ncc(-c3ccc(CC(=O)Nc4cnc(C)c(C(F)(F)F)c4)cc3)cn2)cn1 [Compound P-0179, 2-[4-[2-[[1-(2-methoxyethyl)pyrazol-4-yl]amino]pyrimidin-5-yl]phenyl]-N-[6-methyl-5-(trifluoromethyl)-3-pyridyl]acetamide] | 0.0001 to 10 | 0.0001 to 10 |
| Cn1cc(Nc2ncc(-c3ccc(CC(=O)Nc4cccc(C(F)(F)F)n4)cc3)cn2)cn1 [Compound P-0152, 2-[4-[2-[(1-methylpyrazol-4-yl)amino]pyrimidin-5-yl]phenyl]-N-[6-(trifluoromethyl)-2-pyridyl]acetamide] | 0.0001 to 10 | 0.0001 to 10 |
| Cn1cc(Nc2ncc(-c3ccc(CC(=O)Nc4ccnc(C(F)(F)F)c4)cc3)cn2)cn1 [Compound P-0134, 2-[4-[2-[(1-methylpyrazol-4-yl)amino]pyrimidin-5-yl]phenyl]-N-[2-(trifluoromethyl)-4-pyridyl]acetamide] | 0.0001 to 10 | 0.0001 to 10 |
| Cn1cc(Nc2ncc(-c3ccc(CC(=O)Nc4ccc(S(C)(=O)=O)cc4)cc3)cn2)cn1 [Compound P-0156, 2-[4-[2-[(1-methylpyrazol-4-yl)amino]pyrimidin-5-yl]phenyl]-N-(4-methylsulfonylphenyl)acetamide] | 0.0001 to 10 | 0.0001 to 10 |
| Cc1ncc(NC(=O)Cc2ccc(-c3cnc(Nc4cnn(C)c4)nc3)cc2)cc1C(F)(F)F [Compound P-0140, 2-[4-[2-[(1-methylpyrazol-4-yl)amino]pyrimidin-5-yl]phenyl]-N-[6-methyl-5-(trifluoromethyl)-3-pyridyl]acetamide] | 0.0001 to 10 | 0.0001 to 10 |
| O=C(Cc1ccc(-c2cnc3[nH]c(-c4ccnc(N5CCOCC5)c4)cc3c2)cn1)Nc1ccnc(C(F)(F)F)c1 [Compound P-0181, 2-[5-[2-(2-morpholino-4-pyridyl)-1H-pyrrolo[2,3-b]pyridin-5-yl]-2-pyridyl]-N-[2-(trifluoromethyl)-4-pyridyl]acetamide] | 0.0001 to 10 | 0.0001 to 10 |
| O=C(Cc1ccc(-c2cnc3[nH]c(-c4ccc(N5CCOCC5)nc4)cc3c2)c(F)c1)Nc1cc(C(F)(F)F)ccn1 [Compound P-0192, 2-[3-fluoro-4-[2-(6-morpholino-3-pyridyl)-1H-pyrrolo[2,3-b]pyridin-5-yl]phenyl]-N-[4-(trifluoromethyl)-2-pyridyl]acetamide] | 0.0001 to 10 | 0.0001 to 10 |
| Cn1cc(Nc2ncc(-c3ccc(CC(=O)Nc4cc(Cl)c(C5CC5)cn4)cc3)cn2)cn1 [Compound P-0164, N-(4-chloro-5-cyclopropyl-2-pyridyl)-2-[4-[2-[(1-methylpyrazol-4-yl)amino]pyrimidin-5-yl]phenyl]acetamide] | 0.0001 to 10 | 0.0001 to 10 |
| COc1ncc(NC(=O)Cc2ccc(-c3cnc(Nc4cnn(C)c4)nc3)cc2)cc1C(F)(F)F [Compound P-0138, N-[6-methoxy-5-(trifluoromethyl)-3-pyridyl]-2-[4-[2-[(1-methylpyrazol-4-yl)amino]pyrimidin-5-yl]phenyl]acetamide] | 0.0001 to 10 | 0.0001 to 10 |
